# Measured values from patent US5985292A, “Active phospholipids as a vector for active molecules” (Roussel-UCLAF, priority 1993, dated 1999).
# Tested on: comedones
# Conditions: topical
# Procedure: As an example, the comedolytic power of all-trans 2-retinoyl phosphatidinyl ethanol was tested following the protocol below:
# The animal chosen for the test of comedolytic activity was the Hairless Rhino (hr rh) mouse of female sex, this choice being due to the fact that the skin of such an animal has a high density of comedones having a large diameter and narrow orifice. The use of comedolytic agents on the skin of the animal provokes the opening of the orifice of the comedones, the release of the horny material and the sebum that it contains.
# Two groups comprising six mice each which were six-week's old at the start of the test and weighing on average 18 grams each were used. The first group were mice treated with distilled water (negative control group) and the second group were mice treated with the product under study. The treatment consisted of a topical use of the product studied on the interscapular area at a dose of 0.02 ml, 5 days out of 7, for 21 days. The animals were sacrificed at the end of three weeks of treatment, 24 hours after the last application.
# Biopsies of the skin were then taken from the treated areas of the animals and from these biopsies, sections were prepared for a standard morphometric study by methods known to a person skilled in the art. The following parameters were measured: diameter of the opening of the comedon at the surface i.e d […]
# comedonian profile i.e R = d/D
# The ratio R=d/D allowed the action of the comedolytic agents to be quantified.
# The percentage of inhibition of the comedones was calculated for the product under study relative to the negative control, i.e. the following ratio: [formula]
substance,measurement,setting,value
all-trans 2-retinoyl phosphatidinyl ethanol,% inhibition of the comedones relative to the negative control,"0.1% in solution in ethylenediglycol, interscapular, 0.02 ml, 5 days out of 7, for 21 days",14.1%
same,comedonian profile R = d/D (diameter of the opening of the comedon at the surface / diameter of the comedon),"0.1% in solution in ethylenediglycol, interscapular, 0.02 ml, 5 days out of 7, for 21 days, negative control (distilled water) R = 0.78",0.89
same,comedolytic activity (in words),"at a dose of 0.1%, 21 days",good comedolytic activity
